In patent US6479666B2, “Phenyl-keto-imidazolidine thioamide derivatives” (Hoffman-La Roche Inc., priority 2001, dated 2002):
Counter-ions that a name gives are not always drawn.

Key:
[1] = target: T1, VLA-4 (α4β1 integrin) binding to immobilized VCAM-1 (Homo sapiens, UniProt P05556+P13612); test: VLA-4/VCAM-1 Screening Assay (solid-phase dual antibody ELISA); conditions: Ramos cell-derived VLA-4, recombinant human VCAM-1 coated plates
T1 construct: followed by 10 μl of Ramos cell-derived VLA-4; endogenous in cells; host or cells: Ramos cells (VLA-4 prepared from them)
T1 sequence (P13612 34-1032): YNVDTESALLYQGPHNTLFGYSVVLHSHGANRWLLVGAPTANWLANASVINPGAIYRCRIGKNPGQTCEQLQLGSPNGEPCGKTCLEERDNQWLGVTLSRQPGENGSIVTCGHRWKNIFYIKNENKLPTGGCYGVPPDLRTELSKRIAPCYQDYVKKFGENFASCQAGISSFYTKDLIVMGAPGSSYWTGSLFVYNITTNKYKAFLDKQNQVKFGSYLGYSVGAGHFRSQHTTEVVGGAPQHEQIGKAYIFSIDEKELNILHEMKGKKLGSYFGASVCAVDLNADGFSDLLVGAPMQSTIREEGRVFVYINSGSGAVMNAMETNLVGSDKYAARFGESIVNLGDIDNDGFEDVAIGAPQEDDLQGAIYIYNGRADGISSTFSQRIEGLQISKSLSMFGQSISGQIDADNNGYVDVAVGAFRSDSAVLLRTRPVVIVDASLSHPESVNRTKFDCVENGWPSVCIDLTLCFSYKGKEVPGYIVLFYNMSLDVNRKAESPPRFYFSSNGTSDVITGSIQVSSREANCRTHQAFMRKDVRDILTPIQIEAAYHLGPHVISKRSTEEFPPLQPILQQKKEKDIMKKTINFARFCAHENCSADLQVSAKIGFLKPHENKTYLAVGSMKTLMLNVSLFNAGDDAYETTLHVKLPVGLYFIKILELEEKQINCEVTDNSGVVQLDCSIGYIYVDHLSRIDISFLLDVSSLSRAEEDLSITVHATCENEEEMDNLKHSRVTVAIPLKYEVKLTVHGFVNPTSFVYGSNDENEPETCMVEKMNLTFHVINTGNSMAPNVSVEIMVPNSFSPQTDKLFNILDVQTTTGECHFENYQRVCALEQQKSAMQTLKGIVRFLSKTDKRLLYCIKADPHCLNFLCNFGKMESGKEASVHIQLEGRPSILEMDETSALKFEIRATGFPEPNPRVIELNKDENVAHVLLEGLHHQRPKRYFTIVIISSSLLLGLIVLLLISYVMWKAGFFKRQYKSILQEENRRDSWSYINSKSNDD
T1 sequence (P05556 21-798): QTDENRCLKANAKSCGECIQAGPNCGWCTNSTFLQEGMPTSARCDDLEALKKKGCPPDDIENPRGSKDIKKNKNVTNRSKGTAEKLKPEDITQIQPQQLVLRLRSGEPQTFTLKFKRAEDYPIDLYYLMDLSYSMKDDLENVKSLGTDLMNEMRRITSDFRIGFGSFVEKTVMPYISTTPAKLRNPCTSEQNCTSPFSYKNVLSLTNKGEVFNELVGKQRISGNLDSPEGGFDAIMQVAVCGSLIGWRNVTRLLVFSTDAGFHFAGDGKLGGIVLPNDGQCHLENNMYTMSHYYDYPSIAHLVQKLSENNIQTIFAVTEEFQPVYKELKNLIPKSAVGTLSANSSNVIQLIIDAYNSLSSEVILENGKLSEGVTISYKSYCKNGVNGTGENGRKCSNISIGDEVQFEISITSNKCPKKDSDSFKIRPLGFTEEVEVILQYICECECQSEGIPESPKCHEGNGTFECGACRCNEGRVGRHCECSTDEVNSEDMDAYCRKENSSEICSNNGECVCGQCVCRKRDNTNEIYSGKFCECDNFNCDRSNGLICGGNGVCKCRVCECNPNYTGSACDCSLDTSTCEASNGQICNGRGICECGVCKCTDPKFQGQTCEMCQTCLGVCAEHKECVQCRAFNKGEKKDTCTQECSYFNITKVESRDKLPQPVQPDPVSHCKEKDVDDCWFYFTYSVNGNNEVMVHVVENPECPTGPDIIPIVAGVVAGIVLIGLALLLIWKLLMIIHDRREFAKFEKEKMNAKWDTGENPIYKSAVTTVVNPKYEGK
Protocol: 1. VLA-4/VCAM-1 Screening Assay
VLA-4 antagonist activity, defined as ability to compete for binding to immobilized VCAM-1, was quantitated using a solid-phase, dual antibody ELISA. VLA-4 (α4β1 integrin) bound to VCAM-1 is detected by a complex of anti-integrin β1 antibody: HRP-conjugated anti-mouse IgG: chromogenic substrate (K-Blue). Initially, this entailed coating 96 well plates (Nunc Maxisorp) with recombinant human VCAM-1 (0.4 μg in 100 μl PBS), sealing each plate and then allowing the plates to stand at 4° C. for ^˜18 hr. […] On the day of assay, all plates are washed twice with VCAM Assay Buffer (200 μl/well of 50 mM Tris-HCl, 100 mM NaCl, 1 mM MnCl2, 0.05% Tween 20; pH 7.4). Test compounds are dissolved in 100% DMSO and then diluted 1:20 in VCAM Assay Buffer supplemented with 1 mg/mL BSA (i.e., final DMSO=5%). A series of 1:4 dilutions are performed to achieve a concentration range of 0.005 nM−1.563 μM for each test compound. 100 μl per well of each dilution is added to the VCAM-coated plates, followed by 10 μl of Ramos cell-derived VLA-4. These plates are sequentially mixed on a platform shaker for 1 min, incubated for 2 hr at 37° C., and then washed four times with 200 μl/well VCAM Assay Buffer. 100 μl of mouse anti-human integrin β1 antibody is added to each well (0.6 μg/mL in VCAM Assay Buffer+1 mg/mL BSA) and allowed to incubate for 1 hr at 37° C. At the conclusion of this incubation period, all plates are washed four times with VCAM Assay Buffer (200 μl/well). A corresponding second antibody, HRP-conjugated goat anti-mouse IgG (100 μl per well @ 1:800 dilution in VCAM Assay Buffer+1 mg/mL BSA), is then added to each well, followed by a 1 hr incubation at room temperature and concluded by three washes (200 μl/well) with VCAM Assay Buffer. Color development is initiated by addition of 100 μl K-Blue per well (15 min incubation, room temp) and terminated by addition of 100 μl Red Stop Buffer per well. All plates are then read in a UV/V is spectrophotometer at 650 nM. Results are calculated as % inhibition of total binding (i.e., VLA-4+VCAM-1 in the absence of test compound).

[2] = target: T2, Ramos cells bearing cell-surface VLA-4 (α4β1 integrin) binding to VCAM-1 (Homo sapiens, UniProt P05556+P13612); test: Ramos (VLA-4) / VCAM-1 Cell-Based Screening Assay (cell adhesion); conditions: Calcein-AM labelled Ramos cells, VCAM-1 coated plates
T2 construct: Ramos cells bearing cell-surface VLA-4; endogenous in cells; host or cells: Ramos cells (VLA-4); VCAM-1 made in CHO cells
T2 sequence (P13612 34-1032): as the sequence (P13612 34-1032) above
T2 sequence (P05556 21-798): as the sequence (P05556 21-798) above
Protocol: 2. Ramos (VLA-4) / VCAM-1 Cell-Based Screening Assay Protocol
Soluble recombinant human VCAM-1 (mixture of 5- and 7-Ig domain) was purified from CHO cell culture media by immunoaffinity chromatography and maintained in a solution containing 0.1 M Tris-glycine (pH 7.5), 0.1 M NaCl, 5 mM EDTA, 1 mM PMSF, […] NaN3 and 10 μg/mL leupeptin. Calcein-AM was purchased from Molecular Probes Inc.
VLA-4 (α4β1 integrin) antagonist activity, defined as ability to compete with cell-surface VLA-4 for binding to immobilized VCAM-1, was quantitated using a Ramos-VCAM-1 cell adhesion assay. Ramos cells bearing cell-surface VLA-4, were labeled with a fluorescent dye (Calcein-AM) and allowed to bind VCAM-1 in the presence or absence of test compounds. A reduction in fluorescence intensity associated with adherent cells (% inhibition) reflected competitive inhibition of VLA-4 mediated cell adhesion by the test compound. Initially, this entailed coating 96 well plates (Nunc Maxisorp) with recombinant human VCAM-1 (100 ng in 100 μl PBS), sealing each plate and allowing the plates to stand at 4° C. for ^˜18 hr. The VCAM-coated plates were subsequently washed twice with 0.05% Tween-20 in PBS, and then blocked for 1 hr (room temperature) with 200 μl of Blocking Buffer (1% BSA/0.02% thimerosal) to reduce non-specific binding. Following the incubation with Blocking Buffer, plates were inverted, blotted and the remaining buffer aspirated. Each plate was then washed with 300 μl PBS, inverted and the remaining PBS aspirated.
Test compounds were dissolved in 100% DMSO and then diluted 1:25 in VCAM Cell Adhesion Assay Buffer (4 mM CaCl2, 4 mM MgCl2 in 50 mM TRIS-HCl, pH 7.5) (final DMSO=4%). A series of eight 1:4 dilutions were performed for each compound (general concentration range of 1 nM-12,500 nM). 100 μl/well of each dilution was added to the VCAM-coated plates, followed by 100 μl of Ramos cells (200,000 cells/well in 1% BSA/PBS). Plates containing test compounds and Ramos cells were allowed to incubate for 45 min at room temperature, after which 165 μl/well PBS was added. Plates were inverted to remove non-adherent cells, blotted and 300 μl/well PBS added. Plates were again inverted, blotted and the remaining buffer gently aspirated. 100 μl Lysis Buffer (0.1% SDS in 50 mM TRIS-HCl, pH 8.5) was added to each well and agitated for 2 min on a rotary shaking platform. The plates were then read for fluorescence intensity on a Cytofluor 2300 (Millipore) fluorescence measurement system (excitation=485 nm, emission=530 nm).

[3] = test system: cynomolgus monkeys (Macaca fascicularis) challenged with Ascaris suum antigen; test: Acute airway inflammation in the atopic primate; type: in vivo; conditions: p.o., 2 hours prior to antigen challenge; lavage at 24 hour after A. suum antigen challenge
Protocol: Example 4. Acute airway inflammation in the atopic primate.
Airway inflammation in the monkey was determined using a modification of the protocol described by Turner et al. (Turner et al., 1994). Adult male cynomolgus monkeys (Macaca fascicularis, Hazelton Labs, Denver, Pa.) weighing between 3.6-5.8 kg were used in these studies.
On the day of each experiment the animals were anesthetized with ketamine hydrochloride, 12 mg/kg, and xylazine, 0.5 mg/kg, intubated with a cuffed endotracheal tube (3 mm, Mallinckrodt Medical, St. Louis, Mo.), then seated in an upright position in a specially designed Plexiglass chair (Plas-Labs, Lansing, Mich.). The endotracheal tube was connected to a heated Fleisch pneumotachograph. Airflow was measured via a Validyn differential pressure transducer (DP 45-24) that was attached to the pneumotachograph. Transpulmonary pressure was measured via a second Validyne transducer (DP 45-24) connected between a sidearm of the tracheal cannula and a 18-gauge intrapleural needle inserted in the intercostal space located below the left nipple. […]
Airway inflammation was induced by exposing the animal to an aerosol of A. Suum extract for 60 sec. […] Airway inflammation was assessed by inserting a pediatric bronchoscope into the airway lumen down to about the 4 or 5th generation bronchi and gently lavaging with 3 X 2 ml aliquots of sterile Hanks Balanced Salt Solution. […]

Structure (SMILES) | IC50 [1] [nM] | IC50 [2] [µM] | melting point [°C] | number and percent of inflammatory cells present in the lavage fluid relative to vehicle treated control animals [3]
CC(=O)NCCC1(C(=S)N[C@@H](Cc2ccc(NC(=O)c3c(Cl)cccc3Cl)cc2)C(=O)O)CCCC1 [Example 10, N-[[1-[2-(acetylamino)ethyl]cyclopentyl]thioxomethyl]-4-[[(2,6-dichlorophenyl)carbonyl]amino]-L-phenylalanine] | 1.5 | 0.033 | – | –
COCCC1(C(=S)N[C@@H](Cc2ccc([N+](=O)[O-])cc2)C(=O)OC)CCCC1 [Example 1, N-[[1-(2-methoxyethyl)cyclopentyl]thioxomethyl]-4-nitro-L-phenylalanine methyl ester] | – | – | – | significant decrease
COCCC1(C(=S)N[C@@H](Cc2ccc(NC(=O)c3c(Cl)cccc3Cl)cc2)C(=O)O)CCCC1 [Example 3, 4-[[(2,6-dichlorophenyl)carbonyl]amino]-N-[[1-(2-methoxy-ethyl)cyclopentyl]thioxomethyl]-L-phenylalanine] | 4 | 0.0665 | – | –
O=C(Nc1ccc(C[C@H](NC(=S)c2ccccc2F)C(=O)O)cc1)c1c(Cl)cccc1Cl [Example 34, 4-[[(2,6-dichlorophenyl)carbonyl]amino]-N-[(2-fluorophenyl)thioxomethyl]-L-phenylalanine] | – | 4.18 | – | –
CCc1cccc(C)c1C(=S)N[C@@H](Cc1ccc(NC(=O)c2c(Cl)cccc2Cl)cc1)C(=O)O [Example 25, 4-[[(2,6-dichlorophenyl)carbonyl]amino]-N-[(2-ethyl-6-methylphenyl)thioxomethyl]-L-phenylalanine] | 6 | 0.101 | – | –
O=C(Nc1ccc(C[C@H](NC(=S)c2ccccc2C(F)(F)F)C(=O)O)cc1)c1c(Cl)cccc1Cl [Example 39, 4-[[(2,6-dichlorophenyl)carbonyl]amino]-N-[[2-(trifluoromethyl)phenyl]thioxomethyl]-L-phenylalanine] | – | 0.784 | – | –
CS(=O)(=O)CCCCC1(C(=S)N[C@@H](Cc2ccc(NC(=O)c3c(Cl)cccc3Cl)cc2)C(=O)O)CCC1 [Example 62, 4-[[(2,6-dichlorophenyl)carbonyl]amino]-N-[[1-[4-(methylsulfonyl)-butyl]cyclobutyl]thioxomethyl]-L-phenylalanine] | – | 0.008 | – | –
CCc1cccc(C)c1C(=S)N[C@@H](Cc1ccc(N2C(=O)[C@@H](Cc3cccnc3)N(C(C)=O)[C@@H]2c2ccccc2)cc1)C(=O)O [Example 29, 4-[(2S,4R)-3-acetyl-5-oxo-2-phenyl-4-[(pyridin-3-yl)methyl]imidazolidin-1-yl]-N-[(2-ethyl-6-methylphenyl)thioxomethyl]-L-phenylalanine] | – | 0.22 | – | –

Further compounds by falling IC50 [2], results first:

IC50 [1] [nM] | IC50 [2] [µM] | melting point [°C] | Structure (SMILES) | number and percent of inflammatory cells present in the lavage fluid relative to vehicle treated control animals [3]
– | 0.926 | 186 to 188 | CSCCCC1(C(=S)N[C@@H](Cc2ccc(NC(=O)c3c(Cl)cccc3Cl)cc2)C(=O)O)CCC1 [Example 71, 4-[[(2,6-dichlorophenyl)carbonyl]amino]-N-[[1-[3-(methylthio)propyl]cyclobutyl]-thioxomethyl]-L-phenylalanine] | –
– | 0.341 | – | CS(=O)(=O)CCCC1(C(=S)N[C@@H](Cc2ccc(NC(=O)c3c(Cl)cccc3Cl)cc2)C(=O)O)CCC1 [Example 78, 4-[[(2,6-dichlorophenyl)carbonyl]amino]-N-[[1-[3-(methylsulfonyl)propyl]cyclobutyl]thioxomethyl]-L-phenylalanine] | –
– | 0.148 | – | Cc1ccnc(C)c1C(=O)Nc1ccc(C[C@H](NC(=S)C2(CCCCS(C)(=O)=O)CCCC2)C(=O)O)cc1 [Example 53, 4-[[(2,4-dimethylpyridin-3-yl)carbonyl]amino]-N-[[1-[4-(methylsulfonyl)butyl]-cyclopentyllthioxomethyl]-L-phenylalaninetrifluoroacetic acid salt] | –
0.47 | 0.06 | – | Cc1cccc(Cl)c1C(=S)N[C@@H](Cc1ccc(NC(=O)c2c(Cl)cccc2Cl)cc1)C(=O)O [Example 18, 4-[[(2,6-dichlorophenyl)carbonyl]amino]-N-[(2-chloro-6-methylphenyl)thioxomethyl]-L-phenylalanine] | –
5.6 | 0.0425 | – | CNC(=O)NCCC1(C(=S)N[C@@H](Cc2ccc(NC(=O)c3c(Cl)cccc3Cl)cc2)C(=O)O)CCCC1 [Example 11] | –
– | 0.03 | 200 to 202 | CS(=O)(=O)CCCCC1(C(=S)N[C@@H](Cc2ccc(NC(=O)c3c(Cl)cccc3Cl)cc2)C(=O)O)CCCC1 [Example 50, 4-[[(2,6-dichlorophenyl)carbonyl]amino]-N-[[1-[4-(methylsulfonyl)butyl]cyclopentyl]thioxomethyl]-L-phenylalanine] | –
– | 0.0055 | – | Cc1cc(C(F)(F)F)c(C(=O)Nc2ccc(C[C@H](NC(=S)C3(CCCCS(C)(=O)=O)CCC3)C(=O)O)cc2)c(C)n1 [Example 84] | –
